# doi:10.1101/2024.08.19.608619, “Discovery of potent SARS-CoV-2 nsp3 macrodomain inhibitors uncovers lack of translation to cellular antiviral response” (bioRxiv, 2024)
# Where two headings read alike, the source gives them in different places.
# Columns and labels:
# Test in all cases: biochemical
# Design in all cases: In vitro kinase panel profiling, per cent remaining kinase activity at 10 uM
# [1] = biological target: T1, Aurora-A(h) (Homo sapiens, UniProt O14965); conditions: atp_concentration=15, read-out: % of control remaining
# T1 construct: gene AURKA
# T1 sequence (O14965 1-403): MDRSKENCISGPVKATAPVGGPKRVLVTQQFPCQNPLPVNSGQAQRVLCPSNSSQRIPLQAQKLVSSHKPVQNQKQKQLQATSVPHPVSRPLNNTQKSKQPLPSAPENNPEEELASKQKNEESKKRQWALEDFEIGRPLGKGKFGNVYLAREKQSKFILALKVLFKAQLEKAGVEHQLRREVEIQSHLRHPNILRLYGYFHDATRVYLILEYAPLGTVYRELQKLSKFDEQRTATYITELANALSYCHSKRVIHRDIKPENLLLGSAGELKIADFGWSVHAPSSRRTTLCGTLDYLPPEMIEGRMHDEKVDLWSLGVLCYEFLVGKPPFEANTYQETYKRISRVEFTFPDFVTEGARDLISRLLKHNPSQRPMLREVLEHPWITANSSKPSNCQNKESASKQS
# From the text: (§1) We derisk potential for off-target activity by profiling the compound in a CEREP panel, a standard secondary pharmacology assessment, as well as a kinase panel to derisk a potential hinge-binding motif in our leads, and a PARP panel to derisk activity against human […]. Reassuringly, the compounds are selective, with the only off-targets being moderate human CHRM2 and KOR receptors activity associated with ASAP-0011198.
# [2] = biological target: T2, PRAK(h) (Homo sapiens, UniProt Q8IW41); conditions: atp_concentration=15, read-out: % of control remaining
# T2 construct: gene MAPKAPK5
# T2 sequence (Q8IW41 1-473): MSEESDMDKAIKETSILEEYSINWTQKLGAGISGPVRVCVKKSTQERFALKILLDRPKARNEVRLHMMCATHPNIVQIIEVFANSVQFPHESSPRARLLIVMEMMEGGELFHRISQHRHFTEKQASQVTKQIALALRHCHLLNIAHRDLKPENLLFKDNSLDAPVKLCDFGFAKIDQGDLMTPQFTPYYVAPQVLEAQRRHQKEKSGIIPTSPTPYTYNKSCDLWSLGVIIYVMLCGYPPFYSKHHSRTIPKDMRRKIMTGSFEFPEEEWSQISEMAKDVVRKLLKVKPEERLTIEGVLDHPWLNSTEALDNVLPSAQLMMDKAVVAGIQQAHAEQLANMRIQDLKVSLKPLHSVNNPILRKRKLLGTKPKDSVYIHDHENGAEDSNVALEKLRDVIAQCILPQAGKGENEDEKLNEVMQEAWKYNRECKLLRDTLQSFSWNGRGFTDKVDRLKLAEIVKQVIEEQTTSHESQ
# From the text: as §1
# [3] = biological target: ALK(h) (Homo sapiens, UniProt Q9UM73); conditions: atp_concentration=200, read-out: % of control remaining
# From the text: as §1
# [4] = biological target: T3, Abl(h) (Homo sapiens, UniProt P00519); conditions: atp_concentration=45, read-out: % of control remaining
# T3 construct: gene ABL1
# From the text: as §1
# [5] = biological target: T4, eEF-2K(h) (Homo sapiens, UniProt O00418); conditions: atp_concentration=15, read-out: % of control remaining
# T4 construct: gene EEF2K
# T4 sequence (O00418 1-725): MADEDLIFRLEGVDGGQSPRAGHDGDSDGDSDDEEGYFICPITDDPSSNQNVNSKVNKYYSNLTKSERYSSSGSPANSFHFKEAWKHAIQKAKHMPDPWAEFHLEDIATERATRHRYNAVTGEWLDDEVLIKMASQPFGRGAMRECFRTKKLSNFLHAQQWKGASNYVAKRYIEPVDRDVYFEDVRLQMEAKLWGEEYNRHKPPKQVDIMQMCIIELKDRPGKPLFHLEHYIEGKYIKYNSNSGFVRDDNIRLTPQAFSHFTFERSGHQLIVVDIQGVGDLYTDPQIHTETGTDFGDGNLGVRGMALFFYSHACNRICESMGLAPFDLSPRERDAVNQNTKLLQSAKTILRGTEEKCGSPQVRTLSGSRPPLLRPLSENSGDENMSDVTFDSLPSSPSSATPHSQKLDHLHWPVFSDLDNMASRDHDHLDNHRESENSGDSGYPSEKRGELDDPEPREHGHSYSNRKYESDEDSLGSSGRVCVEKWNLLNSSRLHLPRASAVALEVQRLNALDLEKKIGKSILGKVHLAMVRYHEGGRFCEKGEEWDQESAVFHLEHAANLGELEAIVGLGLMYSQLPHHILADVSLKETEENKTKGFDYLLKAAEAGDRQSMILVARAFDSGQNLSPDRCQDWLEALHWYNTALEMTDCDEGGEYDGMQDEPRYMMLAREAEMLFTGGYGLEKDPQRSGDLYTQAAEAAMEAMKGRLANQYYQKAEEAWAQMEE
# From the text: as §1
# [6] = biological target: T5, LOK(h) (Homo sapiens, UniProt O94804); conditions: atp_concentration=120, read-out: % of control remaining
# T5 construct: gene STK10
# From the text: as §1
# [7] = biological target: T6, MSK2(h) (Homo sapiens, UniProt O75676); conditions: atp_concentration=45, read-out: % of control remaining
# T6 construct: gene RPS6KA4
# From the text: as §1
# [8] = biological target: KDR(h) (Homo sapiens, UniProt P35968); conditions: atp_concentration=90, read-out: % of control remaining
# From the text: as §1
# [9] = biological target: T7, MLK1(h) (Homo sapiens, UniProt P80192); conditions: atp_concentration=45, read-out: % of control remaining
# T7 construct: gene MAP3K9
# From the text: as §1
# [10] = biological target: CDK9/cyclin T1(h) (Homo sapiens, UniProt P50750); conditions: atp_concentration=45, read-out: % of control remaining
# From the text: as §1
# [11] = biological target: T8, p70S6K(h) (Homo sapiens, UniProt P23443); conditions: atp_concentration=15, read-out: % of control remaining
# T8 construct: gene RPS6KB1
# From the text: as §1
# ALK(h), sequence (Q9UM73 whole entry): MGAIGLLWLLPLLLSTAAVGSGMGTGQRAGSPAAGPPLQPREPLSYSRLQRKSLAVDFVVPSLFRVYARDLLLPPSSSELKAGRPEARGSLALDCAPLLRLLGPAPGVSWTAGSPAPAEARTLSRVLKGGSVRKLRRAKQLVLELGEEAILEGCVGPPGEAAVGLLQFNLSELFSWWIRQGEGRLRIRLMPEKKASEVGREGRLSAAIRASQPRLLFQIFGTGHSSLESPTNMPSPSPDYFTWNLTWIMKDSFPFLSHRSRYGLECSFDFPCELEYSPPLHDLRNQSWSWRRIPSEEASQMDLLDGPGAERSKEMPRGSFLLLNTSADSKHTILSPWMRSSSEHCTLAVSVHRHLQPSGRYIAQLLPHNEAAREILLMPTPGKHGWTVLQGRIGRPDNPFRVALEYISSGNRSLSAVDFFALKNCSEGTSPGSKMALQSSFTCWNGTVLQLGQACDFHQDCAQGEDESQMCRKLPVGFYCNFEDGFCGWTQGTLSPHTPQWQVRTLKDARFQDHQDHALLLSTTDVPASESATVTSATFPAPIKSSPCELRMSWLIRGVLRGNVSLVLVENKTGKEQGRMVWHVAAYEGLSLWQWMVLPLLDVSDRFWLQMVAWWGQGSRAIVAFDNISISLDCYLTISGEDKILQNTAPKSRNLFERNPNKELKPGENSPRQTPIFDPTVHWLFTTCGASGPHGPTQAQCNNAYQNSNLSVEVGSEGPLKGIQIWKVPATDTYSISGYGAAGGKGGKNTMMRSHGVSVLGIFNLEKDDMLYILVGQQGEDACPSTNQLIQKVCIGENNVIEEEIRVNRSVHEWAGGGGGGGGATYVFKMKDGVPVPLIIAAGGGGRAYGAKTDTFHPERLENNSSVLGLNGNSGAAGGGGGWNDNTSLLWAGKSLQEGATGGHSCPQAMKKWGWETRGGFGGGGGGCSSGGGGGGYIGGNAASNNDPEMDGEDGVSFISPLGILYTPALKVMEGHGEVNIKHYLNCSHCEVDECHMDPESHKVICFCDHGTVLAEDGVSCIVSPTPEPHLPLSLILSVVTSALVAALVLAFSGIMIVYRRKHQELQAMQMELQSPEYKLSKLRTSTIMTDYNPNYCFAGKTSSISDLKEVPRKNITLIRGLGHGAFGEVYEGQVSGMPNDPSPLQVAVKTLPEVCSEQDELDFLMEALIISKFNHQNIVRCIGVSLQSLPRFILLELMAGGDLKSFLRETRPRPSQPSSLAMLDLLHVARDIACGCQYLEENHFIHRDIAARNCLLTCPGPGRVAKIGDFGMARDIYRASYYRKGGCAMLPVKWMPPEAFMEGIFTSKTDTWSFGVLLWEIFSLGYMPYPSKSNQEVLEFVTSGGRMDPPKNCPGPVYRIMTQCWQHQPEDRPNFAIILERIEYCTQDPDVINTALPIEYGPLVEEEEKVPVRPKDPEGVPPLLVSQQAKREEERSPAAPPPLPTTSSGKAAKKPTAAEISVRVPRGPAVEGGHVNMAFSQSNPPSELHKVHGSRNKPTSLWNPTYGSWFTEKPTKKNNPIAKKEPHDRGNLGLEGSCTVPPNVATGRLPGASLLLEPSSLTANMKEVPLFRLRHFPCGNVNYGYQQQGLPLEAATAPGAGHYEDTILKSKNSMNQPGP
# T7 sequence (P80192 whole entry): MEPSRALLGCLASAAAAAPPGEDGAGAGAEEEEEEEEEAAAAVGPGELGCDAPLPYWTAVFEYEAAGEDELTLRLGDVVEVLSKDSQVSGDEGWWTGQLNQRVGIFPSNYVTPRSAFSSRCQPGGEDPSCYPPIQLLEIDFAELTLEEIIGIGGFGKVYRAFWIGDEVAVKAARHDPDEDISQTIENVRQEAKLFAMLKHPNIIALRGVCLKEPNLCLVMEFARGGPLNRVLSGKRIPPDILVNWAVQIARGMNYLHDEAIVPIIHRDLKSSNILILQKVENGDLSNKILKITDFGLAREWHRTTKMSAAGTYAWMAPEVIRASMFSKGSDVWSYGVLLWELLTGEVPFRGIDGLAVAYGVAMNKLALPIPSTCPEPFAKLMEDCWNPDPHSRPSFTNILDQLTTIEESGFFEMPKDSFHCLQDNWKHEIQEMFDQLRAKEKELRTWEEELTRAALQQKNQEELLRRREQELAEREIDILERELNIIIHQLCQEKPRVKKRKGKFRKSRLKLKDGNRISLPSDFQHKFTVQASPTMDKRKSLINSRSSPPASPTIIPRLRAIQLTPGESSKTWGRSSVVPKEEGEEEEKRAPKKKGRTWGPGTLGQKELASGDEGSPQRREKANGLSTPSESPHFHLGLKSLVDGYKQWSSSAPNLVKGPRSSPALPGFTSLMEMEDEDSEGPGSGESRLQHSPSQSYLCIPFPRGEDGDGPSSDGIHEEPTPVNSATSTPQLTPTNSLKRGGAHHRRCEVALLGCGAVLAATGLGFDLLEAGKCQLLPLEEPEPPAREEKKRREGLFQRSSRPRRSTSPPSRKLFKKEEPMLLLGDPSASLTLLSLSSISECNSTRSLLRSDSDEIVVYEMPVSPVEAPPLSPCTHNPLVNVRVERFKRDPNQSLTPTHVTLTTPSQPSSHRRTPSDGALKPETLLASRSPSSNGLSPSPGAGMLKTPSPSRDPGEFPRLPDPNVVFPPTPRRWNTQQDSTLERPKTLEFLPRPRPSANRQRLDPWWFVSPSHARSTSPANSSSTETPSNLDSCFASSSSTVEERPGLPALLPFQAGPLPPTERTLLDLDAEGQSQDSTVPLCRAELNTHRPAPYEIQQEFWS
# T3 sequence (P00519 whole entry): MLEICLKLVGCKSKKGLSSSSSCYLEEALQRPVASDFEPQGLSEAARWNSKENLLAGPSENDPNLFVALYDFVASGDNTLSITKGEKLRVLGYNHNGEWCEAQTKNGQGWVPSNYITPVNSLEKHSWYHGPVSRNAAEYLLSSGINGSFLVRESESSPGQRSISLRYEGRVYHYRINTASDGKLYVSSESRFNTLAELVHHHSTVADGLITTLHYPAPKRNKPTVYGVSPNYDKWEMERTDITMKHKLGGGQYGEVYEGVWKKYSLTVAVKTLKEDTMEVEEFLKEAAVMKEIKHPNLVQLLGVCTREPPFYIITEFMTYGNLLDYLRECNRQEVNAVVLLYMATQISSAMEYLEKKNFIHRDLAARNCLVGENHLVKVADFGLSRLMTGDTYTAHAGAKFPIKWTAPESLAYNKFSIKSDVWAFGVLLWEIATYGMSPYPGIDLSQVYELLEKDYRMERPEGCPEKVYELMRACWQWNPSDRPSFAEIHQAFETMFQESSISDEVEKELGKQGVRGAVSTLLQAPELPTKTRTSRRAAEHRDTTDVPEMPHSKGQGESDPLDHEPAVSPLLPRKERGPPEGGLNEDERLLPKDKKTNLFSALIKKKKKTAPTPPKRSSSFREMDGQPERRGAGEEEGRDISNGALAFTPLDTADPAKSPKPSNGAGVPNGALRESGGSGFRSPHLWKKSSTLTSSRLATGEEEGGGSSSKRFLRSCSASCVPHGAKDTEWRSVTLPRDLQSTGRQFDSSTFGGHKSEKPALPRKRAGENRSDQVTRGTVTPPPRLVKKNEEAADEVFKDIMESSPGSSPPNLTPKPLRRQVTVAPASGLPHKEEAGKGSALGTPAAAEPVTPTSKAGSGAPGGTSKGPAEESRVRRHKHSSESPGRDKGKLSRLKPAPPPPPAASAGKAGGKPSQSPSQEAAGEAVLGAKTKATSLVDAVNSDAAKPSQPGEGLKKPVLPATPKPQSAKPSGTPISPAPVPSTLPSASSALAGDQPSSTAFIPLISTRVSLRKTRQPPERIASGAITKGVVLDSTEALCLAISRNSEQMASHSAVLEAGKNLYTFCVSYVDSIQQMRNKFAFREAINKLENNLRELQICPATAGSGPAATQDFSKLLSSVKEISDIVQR
# T8 sequence (P23443 whole entry): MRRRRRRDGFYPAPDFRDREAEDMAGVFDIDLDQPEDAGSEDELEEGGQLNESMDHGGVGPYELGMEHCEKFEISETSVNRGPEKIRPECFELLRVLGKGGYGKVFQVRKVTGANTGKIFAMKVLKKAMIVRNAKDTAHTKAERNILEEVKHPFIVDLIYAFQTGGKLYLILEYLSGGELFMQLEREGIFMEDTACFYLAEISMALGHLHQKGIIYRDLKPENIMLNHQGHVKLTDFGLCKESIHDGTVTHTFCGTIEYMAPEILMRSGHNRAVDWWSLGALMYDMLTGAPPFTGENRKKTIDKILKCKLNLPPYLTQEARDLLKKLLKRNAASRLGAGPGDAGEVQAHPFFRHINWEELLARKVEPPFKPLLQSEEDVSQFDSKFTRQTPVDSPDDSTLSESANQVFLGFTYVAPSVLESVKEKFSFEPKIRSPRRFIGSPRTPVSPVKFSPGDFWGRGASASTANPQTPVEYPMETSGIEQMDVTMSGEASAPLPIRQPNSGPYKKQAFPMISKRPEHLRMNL
compound,measurement,setting,value
CC(C)C(Nc1ncnc2[nH]ccc12)c1ccc2c(c1)S(=O)(=O)CCC2 (stereo not drawn) [ASAP-0008327],remaining activity at 10 µM,[1]; batch_name=ASAP-0008327-001,57%
same,remaining activity at 10 µM,[2]; batch_name=ASAP-0008327-001,107%
same,remaining activity at 10 µM,[3]; batch_name=ASAP-0008327-001,93%
same,remaining activity at 10 µM,[4]; batch_name=ASAP-0008327-001,93%
same,remaining activity at 10 µM,[5]; batch_name=ASAP-0008327-001,92%
same,remaining activity at 10 µM,[6]; batch_name=ASAP-0008327-001,104%
same,remaining activity at 10 µM,[7]; batch_name=ASAP-0008327-001,99%
same,remaining activity at 10 µM,[8]; batch_name=ASAP-0008327-001,82%
same,remaining activity at 10 µM,[9]; batch_name=ASAP-0008327-001,81%
same,remaining activity at 10 µM,[10]; batch_name=ASAP-0008327-001,114%
same,remaining activity at 10 µM,[11]; batch_name=ASAP-0008327-001,98%
COc1ccc([C@@H](Cc2nnn[nH]2)NC(=O)c2ncnc3[nH]ccc23)cc1 [ASAP-0008340],remaining activity at 10 µM,[1]; batch_name=ASAP-0008340-001,71%
same,remaining activity at 10 µM,[2]; batch_name=ASAP-0008340-001,95%
same,remaining activity at 10 µM,[3]; batch_name=ASAP-0008340-001,95%
same,remaining activity at 10 µM,[4]; batch_name=ASAP-0008340-001,98%
same,remaining activity at 10 µM,[5]; batch_name=ASAP-0008340-001,96%
same,remaining activity at 10 µM,[6]; batch_name=ASAP-0008340-001,96%
same,remaining activity at 10 µM,[7]; batch_name=ASAP-0008340-001,92%
same,remaining activity at 10 µM,[8]; batch_name=ASAP-0008340-001,79%
same,remaining activity at 10 µM,[9]; batch_name=ASAP-0008340-001,85%
same,remaining activity at 10 µM,[10]; batch_name=ASAP-0008340-001,117%
same,remaining activity at 10 µM,[11]; batch_name=ASAP-0008340-001,81%
CC(C)[C@@H](Nc1ncnc2[nH]c(-c3cnn(C)c3C#N)cc12)c1ccc2c(n1)OCCO2 [ASAP-0008418],remaining activity at 10 µM,[1]; batch_name=ASAP-0008418-001,44%
same,remaining activity at 10 µM,[2]; batch_name=ASAP-0008418-001,95%
same,remaining activity at 10 µM,[3]; batch_name=ASAP-0008418-001,103%
same,remaining activity at 10 µM,[4]; batch_name=ASAP-0008418-001,52%
same,remaining activity at 10 µM,[5]; batch_name=ASAP-0008418-001,111%
same,remaining activity at 10 µM,[6]; batch_name=ASAP-0008418-001,47%
same,remaining activity at 10 µM,[7]; batch_name=ASAP-0008418-001,103%
same,remaining activity at 10 µM,[8]; batch_name=ASAP-0008418-001,80%
same,remaining activity at 10 µM,[9]; batch_name=ASAP-0008418-001,81%
same,remaining activity at 10 µM,[10]; batch_name=ASAP-0008418-001,45%
same,remaining activity at 10 µM,[11]; batch_name=ASAP-0008418-001,82%
